One series relates to A549 cells. The experiment in a line: In-vitro cytotoxicity, MTT assay. Particulars: 24 hours. A general note: Formazan colour is commonly taken as a measure of viable cells.
The test system of a further series is human skin. The experiment in a line: Skin irritancy patch test. The series is classed as in vivo. Particulars: occluded patch, neat. As to the method: The objective of the study was to determine skin irritancy potential of the nanoemulsion hand sanitizer products of the invention. The study was conducted according to internationally recognized Good Clinical Practice Guidelines. Permission to conduct the study was covered under the protocol approval for project MREC/H/48/2014: CR of the Research, Ethics and Publications Committee of the Sefako Makgatho Health Sciences University. Recruitment for the study began two weeks before the commencement of the study and approximately 25 panellists were recruited according to the study requirements, to commence the study with a test panel of 20. Potential panellists attended a series of study briefings held during the week prior to the study. Panellists were verbally briefed and given the Study Instructions, Informed Consent forms (plus coloured duplicate copies of the latter).
Panellists were given specifically timed appointments for the whole study. Unless otherwise stated in the summary, twenty adult female volunteers were used, of whom five had sensitive skins (as determined from the subject enrolment questionnaire). Signed consent forms were obtained from all subjects. Subjects with a history of clinical dermal abnormalities or who are taking or using medication which may affect test results through mediation of the inflammatory response were excluded. […]
Briefly, the study procedure was as follows; Controls and products were applied to the inner forearm of each volunteer in a randomized, blinded pattern at zero hours and repeated on the same position at 24 hours. A measured volume of control or pieces of product was placed in the respective chamber and the chamber attached to the forearm. […]
The protocol uses 1% sodium lauryl sulphate (SLS) solution as a positive control and de-ionized water as a negative control. A measured amount of 0.02 ml of sodium lauryl sulphate and de-ionized water was applied. […]
The maximum irritancy (as calculated by the mean visual score+one standard deviation of the visual score) for the products and the controls is tabulated below. […]

The next series deals with HIV-1 pseudovirus. To be noted: infection of 100 TCID50; cited from earlier work.

Turning to `C=C(C)[C@@H]1CCC(C)=C[C@H]1c1c(O)cc(CCCCC)cc1O` [CBD, cannabidiol], the “cytotoxicity (in words)” value in the series on A549 cells is given as “significant toxicity”.
`CCCCCCCCCCCCOS(=O)(=O)[O-].[Na+]` [H, Sodium Lauryl Sulphate]: the “Maximum value (mean visual score + sd)” value in the series with human skin (0-3 scale, 20 panellists) worked out at 2.18. Further, in the series on human skin, the “Conclusion (irritancy category)” value is reported as “Irritant (product mean visual score+SD >1.5—Product is irritant)” and the “Time point (hours) of maximum value” was 72 h.

B1: cyanovirin-N (protein, UniProt P81180 1-101, looked up)
Cyanovirin-N: LGKFSQTCYNSAIQGSVLTSTCERTNGGYNTSSIDLNSVIENVDGSLKWQPSNFIETCRNTQLAGSSELAAECKTRAQQFVSTKINLDDHIANIDGTLKYE
Consider B1, for which the “reported IC50 (as mass)” value in the series on HIV-1 pseudovirus is 22 to 340 µg. For the same molecule, the “cytotoxicity (in words)” value in the series with A549 cells is given as “significant toxicity”.

The values are drawn from US20250009614A1 (priority 2021, published 2025).
